Experimental findings from patent US7678918B2, “Intermediates for imidazonaphthyridines” (3M Innovative Properties Company, priority 1997, dated 2010) are described below.

For one experiment, the system named is IFN. The experiment is described as follows: Cytokine Induction in Human Cells: interferon (IFN) secreted by PBMCs, A549/encephalomyocarditis bioassay. The experiment is classed as cell-based. Conditions: 18 to 24 hours. A digest of the protocol: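 Human PBMCs from healthy donors at 1.5-2×10^6 cells/mL in RPMI with 10% FBS, exposed to compounds (typically 0.1 to 100 μM, ≤1% DMSO) for 18 to 24 h at 37° C. Secreted IFN measured by A549/encephalomyocarditis virus cytopathic-effect bioassay, in alpha reference units/mL against NIH human leukocyte IFN standard.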

The subject of a further experiment is TNF. The experiment is described as follows: Cytokine Induction in Human Cells: tumor necrosis factor (TNF) secreted by PBMCs, ELISA. The experiment is classed as cell-based. Conditions: 18 to 24 hours. A digest of the protocol:
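Human donor PBMCs at 1.5-2×10^6 cells/mL in RPMI with 10% FBS were exposed to compound, generally at 0.1 to 100 μM (≤1% DMSO final), for 18 to 24 h at 37 °C. Secreted TNF in supernatant was measured by ELISA and reported as pg/mL.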
Background: In an ELISA, binding on a coated surface is turned into a signal by an enzyme label.
Note: call rule not given here.

For the compound `CCCCc1nc2c(N)nc3cccnc3c2n1CCCCNC(=O)Nc1ccccc1` [Example 47, N-[4-(4-Amino-2-butyl-1H-imidazo[4,5-c][1,5]naphthyridin-1-yl)butyl]-N′-phenylurea], the IFN induction entry is “−” in the experiment on IFN (Dose Concentration 0.1 μM), “+” with IFN (Dose Concentration 1.0 μM), “+” with IFN (Dose Concentration 10.0 μM) and “±” with IFN (Dose Concentration 100.0 μM). Further, the TNF induction entry is recorded as “−” in the experiment on TNF (Dose Concentration 0.1 μM), “+” in the experiment on TNF (Dose Concentration 1.0 μM), “+” with TNF (Dose Concentration 10.0 μM) and “+” with TNF (Dose Concentration 100.0 μM).

`CCCCc1nc2c(N)nc3cccnc3c2n1CCCCNC(=O)c1cc(OC)c(OC)c(OC)c1` [Example 162]: the IFN induction result in the experiment with IFN (Dose Concentration 0.1 μM), in the experiment with IFN (Dose Concentration 1.0 μM), in the experiment on IFN (Dose Concentration 10.0 μM) and with IFN (Dose Concentration 100.0 μM) was “+” throughout. Also, the TNF induction result in the experiment with TNF (Dose Concentration 0.1 μM) was “−”; in the experiment on TNF (Dose Concentration 1.0 μM), “+”; with TNF (Dose Concentration 10.0 μM), “+”; in the experiment with TNF (Dose Concentration 100.0 μM) it was “+”.

Consider `CCCCc1nc2c(N)nc3cccnc3c2n1CCNC(=O)Cc1cccnc1` [Example 207], for which the IFN induction entry in the experiment on IFN (Dose Concentration 0.1 μM) is on record as “−”; in the experiment on IFN (Dose Concentration 1.0 μM) it was “−”; in the experiment on IFN (Dose Concentration 10.0 μM), “+”; with IFN (Dose Concentration 100.0 μM), “+”. In addition, the TNF induction result in the experiment on TNF (Dose Concentration 0.1 μM) is on record as “−”; with TNF (Dose Concentration 1.0 μM), “−”; in the experiment with TNF (Dose Concentration 10.0 μM), “+”; with TNF (Dose Concentration 100.0 μM), “+”.

On to `CCCCc1nc2c(N)nc3cccnc3c2n1CCNC(=O)C1(c2ccc(Cl)cc2)CCCC1` [Example 119], for which the IFN induction entry with IFN (Dose Concentration 1.0 μM), in the experiment on IFN (Dose Concentration 10.0 μM) and with IFN (Dose Concentration 100.0 μM) was “−” each time. Further, the TNF induction entry in the experiment with TNF (Dose Concentration 1.0 μM), in the experiment with TNF (Dose Concentration 10.0 μM) and in the experiment on TNF (Dose Concentration 100.0 μM) was “−” throughout.

Regarding `CCCCc1nc2c(N)nc3cccnc3c2n1CCNC(=O)CCc1cccnc1` [Example 208], the IFN induction entry in the experiment on IFN (Dose Concentration 0.1 μM) is “−”; in the experiment with IFN (Dose Concentration 1.0 μM), “−”; in the experiment with IFN (Dose Concentration 10.0 μM), “+”; with IFN (Dose Concentration 100.0 μM), “+”. Further, the TNF induction result in the experiment on TNF (Dose Concentration 0.1 μM) was “−”; in the experiment with TNF (Dose Concentration 1.0 μM), “− and ±”; in the experiment with TNF (Dose Concentration 10.0 μM) it was “− and +”; in the experiment on TNF (Dose Concentration 100.0 μM) it was “− and +”.

Turning to `CCCCc1nc2c(N)nc3cccnc3c2n1CCNC(=O)c1cc(C(F)(F)F)cc(C(F)(F)F)c1` [Example 125], the IFN induction result in the experiment with IFN (Dose Concentration 1.0 μM), with IFN (Dose Concentration 10.0 μM) and with IFN (Dose Concentration 100.0 μM) was “+” in each case. For the same compound, the figures for the TNF induction entry in the experiment on TNF (Dose Concentration 1.0 μM), in the experiment with TNF (Dose Concentration 10.0 μM) and with TNF (Dose Concentration 100.0 μM) were “−”, “+” and “+”, respectively.

Regarding `CCCCc1nc2c(N)nc3cccnc3c2n1CCCCNC(=O)c1ccc(C#N)cc1` [Example 176], the IFN induction entry in the experiment with IFN (Dose Concentration 0.1 μM) is “−”; in the experiment with IFN (Dose Concentration 1.0 μM) it was “+”; in the experiment with IFN (Dose Concentration 10.0 μM), “+”; in the experiment on IFN (Dose Concentration 100.0 μM) it was “+”. In addition, the TNF induction entry in the experiment with TNF (Dose Concentration 0.1 μM) is reported as “−”; with TNF (Dose Concentration 1.0 μM), “−”; with TNF (Dose Concentration 10.0 μM), “+”; with TNF (Dose Concentration 100.0 μM) it was “+”.

Regarding `CCCCc1nc2c(N)nc3cccnc3c2n1CCNC(=O)c1ccccc1OC` [Example 144], the IFN induction entry in the experiment on IFN (Dose Concentration 0.1 μM), in the experiment on IFN (Dose Concentration 1.0 μM), in the experiment on IFN (Dose Concentration 10.0 μM) and in the experiment with IFN (Dose Concentration 100.0 μM) was “+” each time. For the same compound, the TNF induction entry with TNF (Dose Concentration 0.1 μM) was “−”; in the experiment with TNF (Dose Concentration 1.0 μM), “+”; in the experiment on TNF (Dose Concentration 10.0 μM), “+”; in the experiment with TNF (Dose Concentration 100.0 μM) it was “+”.

In the case of `CCCCc1nc2c(N)nc3cccnc3c2n1CCNC(=O)c1c(OC)cccc1OC` [Example 128], the IFN induction entry in the experiment on IFN (Dose Concentration 1.0 μM) was “±”; in the experiment on IFN (Dose Concentration 10.0 μM), “+”; in the experiment on IFN (Dose Concentration 100.0 μM), “+”. For the same compound, the TNF induction result in the experiment on TNF (Dose Concentration 1.0 μM) is recorded as “−”; in the experiment with TNF (Dose Concentration 10.0 μM) it was “±”; with TNF (Dose Concentration 100.0 μM) it was “+”.

On to `CCCCc1nc2c(N)nc3cccnc3c2n1CCNC(=O)CCC1CCCC1` [Example 138], for which the IFN induction entry with IFN (Dose Concentration 1.0 μM), in the experiment on IFN (Dose Concentration 10.0 μM) and in the experiment with IFN (Dose Concentration 100.0 μM) was “+” throughout. In addition, the TNF induction result in the experiment on TNF (Dose Concentration 1.0 μM), with TNF (Dose Concentration 10.0 μM) and in the experiment with TNF (Dose Concentration 100.0 μM) was “+” each time.

For the compound `CCCCc1nc2c(N)nc3cccnc3c2n1CCCCNC(=O)NCc1ccccc1` [Example 53, N-[4-(4-Amino-2-butyl-1H-imidazo[4,5-c][1,5]naphthyridin-1-yl)butyl]-N′-benzylurea], the IFN induction entry in the experiment on IFN (Dose Concentration 0.1 μM), in the experiment with IFN (Dose Concentration 1.0 μM), in the experiment on IFN (Dose Concentration 10.0 μM) and with IFN (Dose Concentration 100.0 μM) was “+” throughout. Also, the TNF induction result is listed as “−” in the experiment with TNF (Dose Concentration 0.1 μM), “+” with TNF (Dose Concentration 1.0 μM), “+” in the experiment with TNF (Dose Concentration 10.0 μM) and “−” with TNF (Dose Concentration 100.0 μM).

`CCCCc1nc2c(N)nc3cccnc3c2n1CCNC(=O)Cc1ccc(SC)cc1` [Example 197]: the IFN induction result in the experiment on IFN (Dose Concentration 0.1 μM) was “−”; in the experiment on IFN (Dose Concentration 1.0 μM) it was “−”; in the experiment with IFN (Dose Concentration 10.0 μM), “+”; with IFN (Dose Concentration 100.0 μM), “+”. Also, the TNF induction result in the experiment on TNF (Dose Concentration 0.1 μM) is listed as “−”; in the experiment with TNF (Dose Concentration 1.0 μM) it was “+”; in the experiment on TNF (Dose Concentration 10.0 μM) it was “+”; in the experiment on TNF (Dose Concentration 100.0 μM), “+”.

As for `CCCCc1nc2c(N)nc3cccnc3c2n1CCCCNC(=O)NC1CCCCC1` [Example 48, N-[4-(4-Amino-2-butyl-1H-imidazo[4,5-c][1,5]naphthyridin-1-yl)butyl]-N′-cyclohexylurea], the IFN induction result is recorded as “+” with IFN (Dose Concentration 0.1 μM), “+” with IFN (Dose Concentration 1.0 μM), “+” in the experiment on IFN (Dose Concentration 10.0 μM) and “−” in the experiment with IFN (Dose Concentration 100.0 μM). Moreover, the TNF induction result is on record as “−” with TNF (Dose Concentration 0.1 μM), “+” with TNF (Dose Concentration 1.0 μM), “+” with TNF (Dose Concentration 10.0 μM) and “−” in the experiment with TNF (Dose Concentration 100.0 μM).

Take `CCCCc1nc2c(N)nc3cccnc3c2n1CCNC(=O)Cc1ccc(OC)cc1` [Example 152]: the IFN induction entry in the experiment on IFN (Dose Concentration 0.1 μM) is “−”; in the experiment with IFN (Dose Concentration 1.0 μM), “−”; with IFN (Dose Concentration 10.0 μM), “+”; in the experiment with IFN (Dose Concentration 100.0 μM), “+”. The TNF induction result in the experiment with TNF (Dose Concentration 0.1 μM) was “−”; in the experiment with TNF (Dose Concentration 1.0 μM), “−”; in the experiment with TNF (Dose Concentration 10.0 μM) it was “+”; with TNF (Dose Concentration 100.0 μM), “+”.

In the case of `CCCCc1nc2c(N)nc3cccnc3c2n1CCCCNC(=O)c1c(C)cc(C)cc1C` [Example 180], the IFN induction result in the experiment with IFN (Dose Concentration 0.1 μM), with IFN (Dose Concentration 1.0 μM), with IFN (Dose Concentration 10.0 μM) and with IFN (Dose Concentration 100.0 μM) was “+” throughout. The TNF induction entry with TNF (Dose Concentration 0.1 μM) is reported as “±”; with TNF (Dose Concentration 1.0 μM), “+”; in the experiment on TNF (Dose Concentration 10.0 μM), “+”; in the experiment on TNF (Dose Concentration 100.0 μM), “+”.

For `CCCCCCCOc1ccc(C(=O)NCCn2c(CCCC)nc3c(N)nc4cccnc4c32)cc1` [Example 149], the IFN induction result in the experiment on IFN (Dose Concentration 0.1 μM), in the experiment with IFN (Dose Concentration 1.0 μM), with IFN (Dose Concentration 10.0 μM) and in the experiment with IFN (Dose Concentration 100.0 μM) was “−” in each case. Moreover, the TNF induction result in the experiment with TNF (Dose Concentration 0.1 μM), in the experiment on TNF (Dose Concentration 1.0 μM), with TNF (Dose Concentration 10.0 μM) and in the experiment on TNF (Dose Concentration 100.0 μM) was “−” throughout.
